{"source": "the kinase profiling compilation of Christmann-Franck et al. (2016)", "assay_in_all_cases": "KINOMEscan competition binding", "conditions_in_all_cases": "compound 10.0 µM", "key": {"PLK3 (human)": {"biological_target": "PLK3 (human) (UniProt Q9H4B4)"}, "CAMK2G (human)": {"biological_target": "CAMK2G (human) (UniProt Q13555)"}, "BMPR1A (human)": {"biological_target": "BMPR1A (human) (UniProt P36894)"}, "PKMYT1 (human)": {"biological_target": "PKMYT1 (human) (UniProt Q99640)"}, "CAMK2D (human)": {"biological_target": "CAMK2D (human) (UniProt Q13557)"}, "STK25 (human)": {"biological_target": "STK25 (human) (UniProt O00506)", "sequence (O00506 whole entry, looked up)": "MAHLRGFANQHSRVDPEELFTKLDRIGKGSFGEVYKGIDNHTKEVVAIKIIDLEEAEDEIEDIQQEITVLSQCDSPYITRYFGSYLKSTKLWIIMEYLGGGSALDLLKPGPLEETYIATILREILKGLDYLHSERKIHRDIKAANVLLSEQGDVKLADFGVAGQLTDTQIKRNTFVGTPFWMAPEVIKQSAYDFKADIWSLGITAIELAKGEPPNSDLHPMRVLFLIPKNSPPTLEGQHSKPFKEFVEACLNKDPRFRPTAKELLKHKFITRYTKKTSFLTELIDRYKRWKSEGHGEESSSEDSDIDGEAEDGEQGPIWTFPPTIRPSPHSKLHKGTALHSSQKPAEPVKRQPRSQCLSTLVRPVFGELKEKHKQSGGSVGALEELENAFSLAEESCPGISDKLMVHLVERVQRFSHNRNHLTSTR"}, "FGFR1 (human)": {"biological_target": "FGFR1 (human) (UniProt P11362)"}, "INSR (human)": {"biological_target": "INSR (human) (UniProt P06213)"}, "PAK6 (human)": {"biological_target": "PAK6 (human) (UniProt Q9NQU5)"}, "CAMK1 (human)": {"biological_target": "CAMK1 (human) (UniProt Q14012)"}, "ZAP70 (human)": {"biological_target": "ZAP70 (human) (UniProt P43403)", "sequence (P43403 whole entry, looked up)": "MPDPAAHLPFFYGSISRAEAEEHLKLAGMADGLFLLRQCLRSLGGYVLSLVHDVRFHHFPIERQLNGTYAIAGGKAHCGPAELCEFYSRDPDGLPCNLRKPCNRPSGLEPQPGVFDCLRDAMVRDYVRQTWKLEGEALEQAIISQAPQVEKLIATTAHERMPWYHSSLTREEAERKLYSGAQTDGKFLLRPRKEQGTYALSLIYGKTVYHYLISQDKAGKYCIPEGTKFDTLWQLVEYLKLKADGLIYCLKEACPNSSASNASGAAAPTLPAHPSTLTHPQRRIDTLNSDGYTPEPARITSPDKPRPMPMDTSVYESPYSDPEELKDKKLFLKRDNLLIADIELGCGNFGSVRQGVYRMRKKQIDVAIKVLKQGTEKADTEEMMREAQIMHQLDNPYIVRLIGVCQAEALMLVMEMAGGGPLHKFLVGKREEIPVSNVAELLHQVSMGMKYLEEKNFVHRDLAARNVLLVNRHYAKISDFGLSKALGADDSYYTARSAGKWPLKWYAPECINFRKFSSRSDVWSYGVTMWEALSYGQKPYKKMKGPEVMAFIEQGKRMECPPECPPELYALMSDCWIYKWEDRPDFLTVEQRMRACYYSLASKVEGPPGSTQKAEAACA"}, "ADCK4 (human)": {"biological_target": "ADCK4 (human) (UniProt Q96D53)", "sequence (Q96D53 whole entry, looked up)": "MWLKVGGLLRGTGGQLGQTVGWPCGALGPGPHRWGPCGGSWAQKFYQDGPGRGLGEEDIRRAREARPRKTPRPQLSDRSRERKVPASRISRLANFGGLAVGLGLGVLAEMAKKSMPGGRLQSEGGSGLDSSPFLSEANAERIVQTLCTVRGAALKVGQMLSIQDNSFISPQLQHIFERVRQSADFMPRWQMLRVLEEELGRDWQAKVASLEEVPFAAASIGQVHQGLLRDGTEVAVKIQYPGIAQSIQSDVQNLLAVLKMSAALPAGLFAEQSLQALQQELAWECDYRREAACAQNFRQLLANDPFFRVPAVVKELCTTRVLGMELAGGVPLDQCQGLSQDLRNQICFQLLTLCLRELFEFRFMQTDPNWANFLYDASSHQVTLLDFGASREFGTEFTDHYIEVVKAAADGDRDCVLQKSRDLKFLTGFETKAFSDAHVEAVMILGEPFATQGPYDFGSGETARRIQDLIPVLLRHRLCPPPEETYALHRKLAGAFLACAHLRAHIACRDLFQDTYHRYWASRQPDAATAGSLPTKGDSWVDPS"}, "PLK1 (human)": {"biological_target": "PLK1 (human) (UniProt P53350)"}, "AKT2 (human)": {"biological_target": "AKT2 (human) (UniProt P31751)", "sequence (P31751 whole entry, looked up)": "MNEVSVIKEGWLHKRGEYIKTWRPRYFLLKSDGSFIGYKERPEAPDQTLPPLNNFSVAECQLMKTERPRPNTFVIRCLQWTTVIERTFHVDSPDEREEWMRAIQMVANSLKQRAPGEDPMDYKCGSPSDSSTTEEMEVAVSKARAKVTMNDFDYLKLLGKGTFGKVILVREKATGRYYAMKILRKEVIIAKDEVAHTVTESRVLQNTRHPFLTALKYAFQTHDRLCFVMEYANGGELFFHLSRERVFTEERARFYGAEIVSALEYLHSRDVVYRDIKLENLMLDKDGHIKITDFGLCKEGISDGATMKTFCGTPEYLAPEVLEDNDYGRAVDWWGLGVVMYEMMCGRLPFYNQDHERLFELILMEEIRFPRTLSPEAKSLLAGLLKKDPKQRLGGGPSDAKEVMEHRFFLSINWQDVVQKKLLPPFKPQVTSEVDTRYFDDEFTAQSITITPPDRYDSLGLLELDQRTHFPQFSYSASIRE"}, "RIPK2 (human)": {"biological_target": "RIPK2 (human) (UniProt O43353)"}, "PRKG2 (human)": {"biological_target": "PRKG2 (human) (UniProt Q13237)"}, "STK36 (human)": {"biological_target": "STK36 (human) (UniProt Q9NRP7)"}, "AKT1 (human)": {"biological_target": "AKT1 (human) (UniProt P31749)"}, "PRKG1 (human)": {"biological_target": "PRKG1 (human) (UniProt Q13976)", "sequence (Q13976 whole entry, looked up)": "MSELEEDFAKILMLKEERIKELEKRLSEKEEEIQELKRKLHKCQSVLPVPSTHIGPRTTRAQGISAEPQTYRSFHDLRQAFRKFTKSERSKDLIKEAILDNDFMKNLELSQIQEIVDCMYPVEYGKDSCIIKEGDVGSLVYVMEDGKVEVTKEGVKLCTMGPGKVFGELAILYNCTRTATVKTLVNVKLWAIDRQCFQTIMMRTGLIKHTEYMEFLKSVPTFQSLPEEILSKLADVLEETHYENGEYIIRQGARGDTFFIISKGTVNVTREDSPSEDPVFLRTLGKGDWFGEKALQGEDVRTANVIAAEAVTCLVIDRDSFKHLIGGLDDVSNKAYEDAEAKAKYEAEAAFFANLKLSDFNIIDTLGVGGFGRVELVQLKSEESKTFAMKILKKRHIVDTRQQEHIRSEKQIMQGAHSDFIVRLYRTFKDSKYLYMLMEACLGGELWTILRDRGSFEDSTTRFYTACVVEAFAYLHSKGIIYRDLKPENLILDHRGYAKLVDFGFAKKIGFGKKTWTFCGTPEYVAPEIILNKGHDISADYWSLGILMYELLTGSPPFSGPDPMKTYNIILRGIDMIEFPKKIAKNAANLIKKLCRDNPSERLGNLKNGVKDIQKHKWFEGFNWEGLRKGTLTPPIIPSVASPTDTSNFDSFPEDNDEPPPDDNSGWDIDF"}, "MAPK1 (human)": {"biological_target": "MAPK1 (human) (UniProt P28482)", "sequence (P28482 whole entry, looked up)": "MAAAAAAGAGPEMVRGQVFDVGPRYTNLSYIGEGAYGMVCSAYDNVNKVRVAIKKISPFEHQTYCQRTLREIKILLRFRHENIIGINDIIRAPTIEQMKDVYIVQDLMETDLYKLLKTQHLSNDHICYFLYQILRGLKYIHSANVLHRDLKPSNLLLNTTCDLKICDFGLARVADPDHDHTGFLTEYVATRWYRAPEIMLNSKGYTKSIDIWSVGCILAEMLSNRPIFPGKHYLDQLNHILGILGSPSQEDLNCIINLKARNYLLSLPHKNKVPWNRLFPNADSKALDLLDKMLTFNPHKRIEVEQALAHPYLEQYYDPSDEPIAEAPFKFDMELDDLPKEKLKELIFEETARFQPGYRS"}, "MAPK3 (human)": {"biological_target": "MAPK3 (human) (UniProt P27361)", "sequence (P27361 whole entry, looked up)": "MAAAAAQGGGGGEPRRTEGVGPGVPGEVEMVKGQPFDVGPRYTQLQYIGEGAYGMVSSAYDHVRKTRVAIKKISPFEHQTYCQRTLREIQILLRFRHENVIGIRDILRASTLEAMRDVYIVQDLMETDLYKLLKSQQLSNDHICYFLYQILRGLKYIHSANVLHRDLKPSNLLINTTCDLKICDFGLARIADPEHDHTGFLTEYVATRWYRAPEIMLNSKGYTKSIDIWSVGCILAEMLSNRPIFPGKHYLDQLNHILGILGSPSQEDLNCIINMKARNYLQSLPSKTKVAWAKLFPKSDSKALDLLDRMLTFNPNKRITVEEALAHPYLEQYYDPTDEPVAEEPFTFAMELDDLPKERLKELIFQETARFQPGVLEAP"}, "CSK (human)": {"biological_target": "CSK (human) (UniProt P41240)"}, "PHKG2 (human)": {"biological_target": "PHKG2 (human) (UniProt P15735)"}, "CLK1 (human)": {"biological_target": "CLK1 (human) (UniProt P49759)"}, "EPHB2 (human)": {"biological_target": "EPHB2 (human) (UniProt P29323)"}, "ERBB2 (human)": {"biological_target": "ERBB2 (human) (UniProt P04626)"}, "MARK4 (human)": {"biological_target": "MARK4 (human) (UniProt Q96L34)"}, "PIM2 (human)": {"biological_target": "PIM2 (human) (UniProt Q9P1W9)", "sequence (Q9P1W9 whole entry, looked up)": "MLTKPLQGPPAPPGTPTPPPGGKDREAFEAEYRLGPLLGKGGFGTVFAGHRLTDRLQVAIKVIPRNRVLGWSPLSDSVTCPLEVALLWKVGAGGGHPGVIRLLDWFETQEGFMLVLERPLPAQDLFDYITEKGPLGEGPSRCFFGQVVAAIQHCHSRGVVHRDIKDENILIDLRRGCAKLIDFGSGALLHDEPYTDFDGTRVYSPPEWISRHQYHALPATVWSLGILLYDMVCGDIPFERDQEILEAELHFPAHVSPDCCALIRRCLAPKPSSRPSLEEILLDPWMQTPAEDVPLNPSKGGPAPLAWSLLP"}, "TXK (human)": {"biological_target": "TXK (human) (UniProt P42681)"}, "NEK2 (human)": {"biological_target": "NEK2 (human) (UniProt P51955)"}, "PRKCA (human)": {"biological_target": "PRKCA (human) (UniProt P17252)"}, "MAP3K4 (human)": {"biological_target": "MAP3K4 (human) (UniProt Q9Y6R4)"}, "EPHA4 (human)": {"biological_target": "EPHA4 (human) (UniProt P54764)"}, "NEK7 (human)": {"biological_target": "NEK7 (human) (UniProt Q8TDX7)", "sequence (Q8TDX7 whole entry, looked up)": "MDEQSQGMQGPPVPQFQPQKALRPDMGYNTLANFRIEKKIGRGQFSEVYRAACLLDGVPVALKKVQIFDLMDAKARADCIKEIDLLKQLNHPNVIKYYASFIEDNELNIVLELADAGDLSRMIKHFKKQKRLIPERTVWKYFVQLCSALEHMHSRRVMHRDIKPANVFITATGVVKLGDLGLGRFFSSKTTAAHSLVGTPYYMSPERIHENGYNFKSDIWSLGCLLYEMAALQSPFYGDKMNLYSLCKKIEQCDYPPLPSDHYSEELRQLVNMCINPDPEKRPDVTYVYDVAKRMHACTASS"}, "PHKG1 (human)": {"biological_target": "PHKG1 (human) (UniProt Q16816)"}, "MAP3K5 (human)": {"biological_target": "MAP3K5 (human) (UniProt Q99683)"}, "[1]": {"biological_target": "JAK1 JH2 pseudokinase (human) (UniProt P23458)"}, "STK32C (human)": {"biological_target": "STK32C (human) (UniProt Q86UX6)"}, "MAPK14 (human)": {"biological_target": "MAPK14 (human) (UniProt Q16539)"}, "PRKX (human)": {"biological_target": "PRKX (human) (UniProt P51817)"}, "CAMKK2 (human)": {"biological_target": "CAMKK2 (human) (UniProt Q96RR4)", "sequence (Q96RR4 whole entry, looked up)": "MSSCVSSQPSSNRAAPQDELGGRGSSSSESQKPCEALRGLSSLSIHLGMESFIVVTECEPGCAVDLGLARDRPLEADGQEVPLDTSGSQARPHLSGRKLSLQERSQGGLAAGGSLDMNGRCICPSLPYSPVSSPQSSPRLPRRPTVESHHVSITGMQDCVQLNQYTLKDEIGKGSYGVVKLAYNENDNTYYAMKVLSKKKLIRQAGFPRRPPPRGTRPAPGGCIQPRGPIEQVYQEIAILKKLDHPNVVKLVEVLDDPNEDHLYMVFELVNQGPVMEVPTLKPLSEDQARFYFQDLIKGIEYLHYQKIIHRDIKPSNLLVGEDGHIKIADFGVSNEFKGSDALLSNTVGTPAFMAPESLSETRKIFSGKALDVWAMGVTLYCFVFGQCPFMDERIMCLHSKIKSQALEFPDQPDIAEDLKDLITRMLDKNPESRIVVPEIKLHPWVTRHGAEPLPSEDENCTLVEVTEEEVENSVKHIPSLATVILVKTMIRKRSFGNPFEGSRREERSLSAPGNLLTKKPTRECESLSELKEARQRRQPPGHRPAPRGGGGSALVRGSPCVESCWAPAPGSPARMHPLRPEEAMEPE"}}, "data": [{"smiles": "CCS(=O)(=O)Nc1ccc2c(c1)[C@H](/C(=N/c1ccc(CN3CCCCC3)cc1)c1ccccc1)C(=O)N2", "values": [{"measurement": "kinase still bound, per cent of control", "setting": "PLK3 (human)", "result": "no effect (inactive)"}, {"measurement": "kinase still bound, per cent of control", "setting": "CAMK2G (human)", "result": 0.2, "unit": "%"}, {"measurement": "kinase still bound, per cent of control", "setting": "BMPR1A (human)", "result": 4.35, "unit": "%"}, {"measurement": "kinase still bound, per cent of control", "setting": "PKMYT1 (human)", "result": "no effect (inactive)"}, {"measurement": "kinase still bound, per cent of control", "setting": "CAMK2D (human)", "result": 2, "unit": "%"}, {"measurement": "kinase still bound, per cent of control", "setting": "STK25 (human)", "result": 0.4, "unit": "%"}, {"measurement": "kinase still bound, per cent of control", "setting": "FGFR1 (human)", "result": 0, "unit": "%"}, {"measurement": "kinase still bound, per cent of control", "setting": "INSR (human)", "result": 0, "unit": "%"}, {"measurement": "kinase still bound, per cent of control", "setting": "PAK6 (human)", "result": 2.6, "unit": "%"}, {"measurement": "kinase still bound, per cent of control", "setting": "CAMK1 (human)", "result": 8.3, "unit": "%"}, {"measurement": "kinase still bound, per cent of control", "setting": "ZAP70 (human)", "result": "no effect (inactive)"}, {"measurement": "kinase still bound, per cent of control", "setting": "ADCK4 (human)", "result": "no effect (inactive)"}, {"measurement": "kinase still bound, per cent of control", "setting": "PLK1 (human)", "result": 1.55, "unit": "%"}, {"measurement": "kinase still bound, per cent of control", "setting": "AKT2 (human)", "result": "no effect (inactive)"}, {"measurement": "kinase still bound, per cent of control", "setting": "RIPK2 (human)", "result": 6.9, "unit": "%"}, {"measurement": "kinase still bound, per cent of control", "setting": "PRKG2 (human)", "result": 0, "unit": "%"}, {"measurement": "kinase still bound, per cent of control", "setting": "STK36 (human)", "result": "no effect (inactive)"}, {"measurement": "kinase still bound, per cent of control", "setting": "AKT1 (human)", "result": "no effect (inactive)"}, {"measurement": "kinase still bound, per cent of control", "setting": "PRKG1 (human)", "result": 0.15, "unit": "%"}, {"measurement": "kinase still bound, per cent of control", "setting": "MAPK1 (human)", "result": 14, "unit": "%"}, {"measurement": "kinase still bound, per cent of control", "setting": "MAPK3 (human)", "result": 10.8, "unit": "%"}, {"measurement": "kinase still bound, per cent of control", "setting": "CSK (human)", "result": 0, "unit": "%"}, {"measurement": "kinase still bound, per cent of control", "setting": "PHKG2 (human)", "result": 0, "unit": "%"}, {"measurement": "kinase still bound, per cent of control", "setting": "CLK1 (human)", "result": 0, "unit": "%"}, {"measurement": "kinase still bound, per cent of control", "setting": "EPHB2 (human)", "result": 0.15, "unit": "%"}, {"measurement": "kinase still bound, per cent of control", "setting": "ERBB2 (human)", "result": "no effect (inactive)"}, {"measurement": "kinase still bound, per cent of control", "setting": "MARK4 (human)", "result": 0, "unit": "%"}, {"measurement": "kinase still bound, per cent of control", "setting": "PIM2 (human)", "result": "no effect (inactive)"}, {"measurement": "kinase still bound, per cent of control", "setting": "TXK (human)", "result": 0, "unit": "%"}, {"measurement": "kinase still bound, per cent of control", "setting": "NEK2 (human)", "result": 0, "unit": "%"}, {"measurement": "kinase still bound, per cent of control", "setting": "PRKCA (human)", "result": 2.5, "unit": "%"}, {"measurement": "kinase still bound, per cent of control", "setting": "MAP3K4 (human)", "result": 28.3, "unit": "%"}, {"measurement": "kinase still bound, per cent of control", "setting": "EPHA4 (human)", "result": 3.6, "unit": "%"}, {"measurement": "kinase still bound, per cent of control", "setting": "NEK7 (human)", "result": "no effect (inactive)"}, {"measurement": "kinase still bound, per cent of control", "setting": "PHKG1 (human)", "result": 0.1, "unit": "%"}, {"measurement": "kinase still bound, per cent of control", "setting": "MAP3K5 (human)", "result": 1.4, "unit": "%"}, {"measurement": "kinase still bound, per cent of control", "setting": "[1]", "result": 1.8, "unit": "%"}, {"measurement": "kinase still bound, per cent of control", "setting": "STK32C (human)", "result": "no effect (inactive)"}, {"measurement": "kinase still bound, per cent of control", "setting": "MAPK14 (human)", "result": "no effect (inactive)"}, {"measurement": "kinase still bound, per cent of control", "setting": "PRKX (human)", "result": 24.8, "unit": "%"}, {"measurement": "kinase still bound, per cent of control", "setting": "CAMKK2 (human)", "result": 0.1, "unit": "%"}]}]}
